Literature values, collected in publication PMC4483627 (Marine Drugs, 2015).

Biological target: T1, rat nAChR α3β4 (Rattus norvegicus, UniProt P04757+P12392)
T1 construct: expressed in transfected cells; host or cells: Xenopus oocytes injected with cRNA
Details: cited from earlier work

T1 sequence (P04757 26-499 limits assumed): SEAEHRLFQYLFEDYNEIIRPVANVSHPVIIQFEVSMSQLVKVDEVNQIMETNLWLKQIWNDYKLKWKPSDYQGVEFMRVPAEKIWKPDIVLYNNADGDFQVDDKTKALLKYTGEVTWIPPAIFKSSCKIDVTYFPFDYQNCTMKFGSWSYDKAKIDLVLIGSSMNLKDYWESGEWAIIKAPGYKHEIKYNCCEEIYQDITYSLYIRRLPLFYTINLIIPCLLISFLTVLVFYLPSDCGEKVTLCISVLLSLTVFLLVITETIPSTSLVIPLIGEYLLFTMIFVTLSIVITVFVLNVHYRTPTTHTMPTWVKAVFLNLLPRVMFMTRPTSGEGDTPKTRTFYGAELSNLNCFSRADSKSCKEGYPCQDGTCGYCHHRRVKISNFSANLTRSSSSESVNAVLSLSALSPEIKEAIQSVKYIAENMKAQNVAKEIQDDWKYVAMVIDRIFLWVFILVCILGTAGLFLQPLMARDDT
T1 sequence (P12392 21-495 limits assumed): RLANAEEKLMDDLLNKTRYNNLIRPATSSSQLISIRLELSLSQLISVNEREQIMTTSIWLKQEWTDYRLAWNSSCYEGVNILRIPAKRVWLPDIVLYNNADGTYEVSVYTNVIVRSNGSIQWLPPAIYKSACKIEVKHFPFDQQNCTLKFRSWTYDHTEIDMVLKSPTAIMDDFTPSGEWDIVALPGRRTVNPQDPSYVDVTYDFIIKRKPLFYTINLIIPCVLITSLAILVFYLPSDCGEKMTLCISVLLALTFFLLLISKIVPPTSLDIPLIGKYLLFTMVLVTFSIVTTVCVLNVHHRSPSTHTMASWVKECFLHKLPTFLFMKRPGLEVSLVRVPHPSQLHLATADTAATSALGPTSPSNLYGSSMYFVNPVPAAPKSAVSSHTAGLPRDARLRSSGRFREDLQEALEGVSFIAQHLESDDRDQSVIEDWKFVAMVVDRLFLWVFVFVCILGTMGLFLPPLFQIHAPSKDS

In the case of “G CC SHP V C SAMS P I- C * (bicyclic or more) [TxID]”, the IC50 is given as 12.5 nM.
